According to the supplement of paper PMC10307832:

What was measured:
Test in all cases: relative viability (nuclei count vs DMSO), 5 days (fraction); higher = more cells survive
BAY61-3606 + Lapatinib = compound: COC1=C(C=C(C=C1)C2=CC3=NC=CN3C(=N2)NC4=C(C=CC=N4)C(=O)N)OC [BAY61-3606] + CS(=O)(=O)CCNCc1ccc(-c2ccc3ncnc(Nc4ccc(OCc5cccc(F)c5)c(Cl)c4)c3c2)o1 [Lapatinib] (partner 2 µM)
How it was run: (§1)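 Relative viability equals treated-well nuclei counts divided by vehicle-well nuclei counts. Counts came from 4× images of lung cancer cell lines grown in 1536-well plates for 5 days after pin-tool dosing on the day after seeding. Dosing used one drug alone or a fixed anchor-drug dose plus five library-drug doses (not always all listed) in √10 steps, and values are medians of duplicate plates.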

Doxorubicin + Decitabine = compound: COc1cccc2c1C(=O)c1c(O)c3c(c(O)c1C2=O)C[C@@](O)(C(=O)CO)C[C@@H]3O[C@H]1C[C@H](N)[C@H](O)[C@H](C)O1 [Doxorubicin] + Nc1ncn([C@H]2C[C@H](O)[C@@H](CO)O2)c(=O)n1 [Decitabine] (partner 2 µM)
How it was run: as §1

Doxorubicin + Tozasertib = compound: COc1cccc2c1C(=O)c1c(O)c3c(c(O)c1C2=O)C[C@@](O)(C(=O)CO)C[C@@H]3O[C@H]1C[C@H](N)[C@H](O)[C@H](C)O1 [Doxorubicin] + Cc1cc(Nc2cc(N3CCN(C)CC3)nc(Sc3ccc(NC(=O)C4CC4)cc3)n2)n[nH]1 [Tozasertib] (partner 0.1 µM)
How it was run: as §1

BAY61-3606 + Olaparib = compound: COC1=C(C=C(C=C1)C2=CC3=NC=CN3C(=N2)NC4=C(C=CC=N4)C(=O)N)OC [BAY61-3606] + O=C(c1cc(Cc2n[nH]c(=O)c3ccccc23)ccc1F)N1CCN(C(=O)C2CC2)CC1 [Olaparib] (partner 8 µM)
How it was run: as §1

| Cell Line | relative viability (BAY61-3606 + Lapatinib; first compound 0.02 µM) | relative viability (BAY61-3606 + Lapatinib; first compound 0.06325 µM) | relative viability (BAY61-3606 + Lapatinib; first compound 0.2 µM) | relative viability (BAY61-3606 + Lapatinib; first compound 0.6325 µM) | relative viability (BAY61-3606 + Lapatinib; first compound 2 µM) | relative viability (Doxorubicin + Decitabine; first compound 0.001 µM) | relative viability (Doxorubicin + Decitabine; first compound 0.003162 µM) | relative viability (Doxorubicin + Decitabine; first compound 0.01 µM) | relative viability (Doxorubicin + Decitabine; first compound 0.03162 µM) | relative viability (Doxorubicin + Decitabine; first compound 0.1 µM) | relative viability (Doxorubicin + Tozasertib; first compound 0.001 µM) | relative viability (Doxorubicin + Tozasertib; first compound 0.003162 µM) | relative viability (Doxorubicin + Tozasertib; first compound 0.01 µM) | relative viability (Doxorubicin + Tozasertib; first compound 0.03162 µM) | relative viability (Doxorubicin + Tozasertib; first compound 0.1 µM) | relative viability (BAY61-3606 + Olaparib; first compound 0.02 µM) | relative viability (BAY61-3606 + Olaparib; first compound 0.06325 µM) | relative viability (BAY61-3606 + Olaparib; first compound 0.2 µM) | relative viability (BAY61-3606 + Olaparib; first compound 0.6325 µM) | relative viability (BAY61-3606 + Olaparib; first compound 2 µM) |
| --- | --- | --- | --- | --- | --- | --- | --- | --- | --- | --- | --- | --- | --- | --- | --- | --- | --- | --- | --- | --- |
| HCC-44 | 1.02 | 1.02 | 1.02 | 1.06 | 1.21 | 1.01 | 1.01 | 0.902 | 0.964 | 0.977 | 0.767 | 0.882 | 0.797 | 0.284 | 0.321 | 0.955 | 0.974 | 0.979 | 0.901 | 0.958 |
| HCC-78 | 0.949 | 0.682 | 0.82 | 0.702 | 0.959 | 0.749 | 0.697 | 0.717 | 0.668 | 0.533 | 0.491 | 0.44 | 0.403 | 0.353 | 0.388 | 0.744 | 0.891 | 0.845 | 0.966 | 0.838 |
| HCC-366 | 1.05 | 1.09 | 1.13 | 1.08 | 0.955 | 0.334 | 0.35 | 0.281 | 0.309 | 0.334 | – | 0.156 | 0.179 | 0.106 | 0.158 | 0.406 | 0.436 | 0.365 | 0.324 | 0.235 |
| HCC-827 | 0.2 | 0.2 | 0.206 | 0.226 | 0.217 | 0.339 | 0.328 | 0.333 | 0.264 | 0.262 | 0.45 | 0.391 | 0.407 | 0.416 | 0.432 | 0.648 | 0.737 | 0.67 | 0.606 | 0.624 |
| HOP-62 | 0.918 | – | 1.05 | 1.06 | 1.07 | 0.217 | 0.249 | 0.187 | 0.228 | 0.206 | 0.376 | 0.414 | 0.402 | 0.352 | 0.405 | 0.476 | 0.569 | 0.279 | 0.505 | 0.376 |
| IA-LM | 0.92 | 0.841 | – | 0.981 | 0.58 | – | – | – | – | – | – | – | – | – | – | 1.02 | 0.864 | 0.816 | 0.85 | 0.68 |
| LC-2-ad | 1.02 | 0.97 | 0.951 | 0.898 | 0.979 | 0.764 | 0.842 | 0.831 | 0.92 | 0.759 | 0.455 | 0.402 | 0.401 | 0.246 | 0.239 | 0.703 | 0.701 | 0.723 | 0.717 | 0.578 |
| LCLC-97TM1 | 1.23 | – | 1.05 | 1.05 | 0.864 | 0.229 | 0.233 | 0.178 | 0.176 | 0.242 | 0.183 | 0.191 | 0.216 | 0.268 | 0.319 | 0.498 | 0.365 | 0.462 | 0.336 | 0.389 |
| LCLC-103H | – | – | – | – | – | 0.751 | 0.747 | 0.75 | 0.789 | 0.73 | 0.531 | 0.411 | 0.465 | 0.414 | 0.529 | 0.764 | 0.786 | 0.847 | 0.758 | 0.772 |
| LK-2 | 0.922 | 0.777 | 1.01 | 1.03 | 0.935 | 0.238 | 0.376 | 0.251 | 0.258 | 0.23 | 0.153 | 0.156 | 0.134 | 0.177 | 0.19 | 0.694 | 0.598 | 0.731 | 0.846 | 0.736 |
| NCI-H441 | – | – | – | – | – | 0.597 | 0.241 | 0.243 | 0.157 | 0.183 | – | 0.612 | 0.511 | 0.249 | 0.245 | 0.561 | 0.629 | 0.511 | 0.473 | 0.32 |
| NCI-H522 | – | – | – | – | – | 0.647 | 0.704 | 0.634 | 0.683 | 0.601 | 0.581 | 0.577 | 0.512 | 0.488 | 0.609 | 0.768 | 0.618 | 0.644 | 0.654 | 0.53 |
| NCI-H1299 | 0.945 | 0.98 | 0.97 | 0.963 | 0.953 | – | – | – | – | – | – | – | – | – | – | 1 | 0.987 | 0.983 | 0.967 | 0.936 |
| NCI-H1563 | 0.982 | 0.899 | 0.974 | 1.19 | 0.809 | – | – | – | – | – | – | – | – | – | – | – | – | – | – | – |
| NCI-H1623 | – | – | – | – | – | – | – | – | – | – | 0.489 | 0.426 | 0.417 | 0.39 | 0.445 | – | – | – | – | – |
| NCI-H1648 | – | – | – | – | – | 0.604 | 0.451 | 0.599 | 0.421 | 0.495 | 0.55 | 0.471 | 0.348 | 0.304 | 0.456 | 0.766 | 0.982 | 0.736 | – | 0.765 |
| NCI-H1703 | 1.55 | 1.2 | 0.978 | 1.02 | 0.891 | – | – | – | – | – | – | – | – | – | – | 0.626 | 0.383 | 0.448 | 0.541 | 0.276 |
| NCI-H1792 | 0.904 | 0.951 | 0.949 | 0.902 | 0.95 | 0.622 | 0.677 | 0.57 | 0.485 | 0.525 | – | – | – | – | – | 0.66 | 0.463 | 0.294 | 0.286 | 0.282 |
| NCI-H2228 | 1.34 | 1.01 | 1.27 | 1 | 0.894 | – | – | – | – | – | 0.276 | 0.269 | 0.21 | 0.125 | 0.107 | 0.879 | 0.73 | 0.889 | 0.693 | 0.412 |
| NCI-H2342 | – | – | – | – | – | 0.703 | 0.778 | 0.786 | 0.63 | 0.748 | 0.528 | 0.506 | 0.545 | 0.508 | 0.625 | 0.352 | 0.406 | 0.399 | 0.495 | 0.432 |
| SW 900 | – | – | – | – | – | – | 0.461 | 0.449 | 0.403 | 0.449 | 0.543 | 0.491 | 0.596 | 0.456 | 0.231 | 0.881 | – | – | 0.856 | 0.573 |
